Laboratory results: US20220378773A1, “METHODS FOR TREATING LEUKEMIA AND USE OF A LEUKEMIC STEM CELL SIGNATURE TO PREDICT CLINICAL SENSITIVITY TO THERAPIES” (CELGENE CORPORATION, priority 2019, published 2022)
“Also recorded” adds a separate entry of the source. Marks after values point to notes of the source that are not given here.

Tested on: leukemic stem cells (LSCs)
Test: Secondary xenograft limiting dilution assay (LDA)
Assay type: in vivo, NOD/SCID mice
Settings: for Fold reduction of LSC frequency by Compound D: relative to vehicle; for No. mice engrafted/No. mice transplanted: from Compound D-treated primary mice
Description: Secondary xenograft limiting dilution assay: To determine whether Compound D targeted leukemia stem cells with self-renewal ability, which are considered to contribute to leukemia progression, therapy-resistance, and relapse, secondary transplantation was performed using LDA. Limiting dilution assays are designed to define an unknown frequency of LSCs in the total leukemia graft of primary mice. LDA analysis in secondary transplantation will allow quantitative determination whether Compound D targets LSCs with self-renewal ability in primary mice. For this, multiple cell doses were used for secondary transplant to achieve both a positive response (engrafted mice at high cell doses) and a negative response (non-engrafted mice at lowest cell dose). Four different AML cell doses for each treated group (1 million, 500,000, 50,000 and 2000 cells/mouse) with 5 mice per cell dose, totally 40 mice for each AML graft sample. For any sample that was considered aggressive, LDA was performed with lower cell doses. The frequency of LSCs was analyzed using the Walter and Eliza Hall Institute (WEHI) bioinformatics extreme limiting dilution analysis (ELDA) software (bioinf.wehi.edu.au).
For secondary transplant NOD/SCID mice were sublethally irradiated (275 cGy) and pretreated with anti-CD122 antibody (200 μg/mouse) to deplete residual host natural killer cells. On the day of transplantation, viably frozen cells harvested from the vehicle- or Compound D-treated primary mice were thawed, counted, mouse-cell depleted (Mouse Cell Depletion Kit, Miltenyi Biotec, USA), and transplanted intrafemorally into the pretreated secondary mice at limiting doses described above. For secondary transplant without LDA, thawed cells were not depleted of mouse cells before transplantation. At 12 weeks post secondary transplantation, mice were euthanized, and bone marrow was collected and analyzed.
Limiting dilution assay: Limiting dilution assays were used to define the frequency of leukemia stem cells in the total leukemia graft of the primary mice. Therefore, analysis of LDA in secondary transplantation will allow quantitative determination whether Compound D targets leukemia stem cells with self-renewal ability in primary mice. For this, multiple cell doses were used for secondary transplant to achieve both a positive response (engrafted mice at high cell doses) and a negative response (non-engrafted mice at lowest cell dose). Four different AML cell doses for each treated group were used (1 million, 500,000, 50,000 and 2000 cells/mouse) with 5 mice per cell dose, totally 40 mice for each leukemia graft sample. For any sample that was considered aggressive, LDA was performed with lower cell doses. The frequency of LSCs was analyzed using the Walter and Eliza Hall Institute (WEHI) bioinformatics extreme limiting dilution analysis (ELDA) software (bioinfwehi.edu.au).
Intrafemoral transplantation: One day prior to transplantation, NOD/SCID mice were sublethally irradiated (275 cGy) and pretreated with anti-CD122 antibody (200m/mouse) to deplete residual host natural killer cells. On the day of transplantation, viably frozen cells harvested from combined vehicle- or Compound D-treated (2.5 mg/kg intraperitoneally twice daily for 14 days, Section 6.1) primary mice were thawed, counted, mouse cell depleted, and transplanted intrafemorally into the pretreated secondary mice at limiting doses in a total volume of 30 μl. For the Compound D-treated samples with low human AML engraftment 25%), cells from both RF and BM were combined and 2 rounds of mouse depletion were performed to ensure a high human AML cell purity. […] Mouse cell depletion was performed following the instructions provided by Miltenyi Biotec (Mouse Cell Depletion Kit, catalogue number 130-104-694, Miltenyi Biotec, Germany). […]

Structure (SMILES): O=C1CCC(N2Cc3cc(CNC(=O)C(F)(F)c4ccc(Cl)cc4)ccc3C2=O)C(=O)N1 (centres unmarked) [Compound D, 2-(4-chlorophenyl)-N-((2-(2,6-dioxopiperidin-3-yl)-1-oxoisoindolin-5-yl)methyl)-2,2-difluoroacetamide]
- AML engraftment in secondary mice (AML 90191, cells from Compound D primary-treated mice, about 12 weeks): no AML engraftment
- leukemia graft in secondary mice vs vehicle-treated cells (AML 110500): much lower leukemia graft
- LSC frequency, vehicle- vs Compound D-treated primary mice (AML 120860, non-injected BM data): no difference in LSC frequency; also recorded: no difference for LSC frequency
- LSC frequency increase following treatment (AML Patient 110484): 1.6 fold
- LSC frequency increase following treatment (AML Patient 120846): 1.8 fold
- LSC frequency increase following treatment (AML Patient 120860): 1.3 fold
- LSC frequency increase following treatment (AML Patient 130695): 12.6 fold
- LSC frequency (AML Patient 130926 (responder)): did not reduce LSC frequency
- LSC frequency (1/total number), Compound D (Patient 598, cells from RF of treated primary mice): 675569 1/total number
- Fold reduction of LSC frequency by Compound D (Patient 598): 2.1 fold
- LSC frequency (1/total number), Compound D (Patient 90191, cells from RF + BM of treated primary mice): Not engrafted
- LSC frequency (1/total number), Compound D (Patient 100348, cells from RF + BM of treated primary mice): 923814 1/total number
- Fold reduction of LSC frequency by Compound D (Patient 100348): 4.0 fold
- LSC frequency (1/total number), Compound D (Patient 110484, cells from RF of treated primary mice): 1153831 1/total number
- Fold reduction of LSC frequency by Compound D (Patient 110484, negative sign = increase): −1.6 ^a fold
- LSC frequency (1/total number), Compound D (Patient 110500, cells from RF of treated primary mice): 356239 1/total number
- LSC frequency (1/total number), Compound D (Patient 120791, cells from RF + BM of treated primary mice): Not engrafted
- LSC frequency (1/total number), Compound D (Patient 120846, cells from RF of treated primary mice): 14523 1/total number
- Fold reduction of LSC frequency by Compound D (Patient 120846, negative sign = increase): −1.8 ^a fold
- LSC frequency (1/total number), Compound D (Patient 120860, cells from BM of treated primary mice): 65626 1/total number
- Fold reduction of LSC frequency by Compound D (Patient 120860, negative sign = increase): −1.3 ^a fold
- LSC frequency (1/total number), Compound D (Patient 120899, cells from BM of treated primary mice): 27120 1/total number
- Fold reduction of LSC frequency by Compound D (Patient 120899): 4.0 fold
- LSC frequency (1/total number), Compound D (Patient 121020, cells from RF+BM of treated primary mice): 7562084 1/total number
- Fold reduction of LSC frequency by Compound D (Patient 121020): 1.5 fold
- No. mice engrafted/No. mice transplanted (Patient 130578, 5000 cells transplanted/mouse): 0/5
- No. mice engrafted/No. mice transplanted (Patient 130578, 20000 cells transplanted/mouse): 0/5
- No. mice engrafted/No. mice transplanted (Patient 130578, 50000 cells transplanted/mouse): 2/5
- No. mice engrafted/No. mice transplanted (Patient 130578, 120000 cells transplanted/mouse): 2/3
- Fold reduction of LSC frequency by Compound D (Patient 130578): 9.4 fold
- LSC frequency (1/total number), Compound D (Patient 130695, cells from RF of treated primary mice): 36696 1/total number
- Fold reduction of LSC frequency by Compound D (Patient 130695, negative sign = increase): −12.6*** ^a fold
- LSC frequency (1/total number), Compound D (Patient 130712, cells from BM of treated primary mice): 758064 1/total number
- Fold reduction of LSC frequency by Compound D (Patient 130712): 2.7 fold
- LSC frequency (1/total number), Compound D (Patient 130926, cells from RF + BM of treated primary mice): 1207241 1/total number
- Fold reduction of LSC frequency by Compound D (Patient 130926): 1.0 fold
- LSC frequency (1/total number), Compound D (Patient 140171, cells from RF + BM of treated primary mice): Not engrafted
- responsive leukemia samples with LSCs targeted (mouse, in vivo): 6 out of 10 samples
